One block for each molecule: values may come before it.
Legend:
Assay in all cases: radiometric filter-binding kinase assay, Kinase HotSpot
Conditions in all cases: compound 0.5 µM; ATP 10 µM
[1] = target: ADRBK1 (human) (UniProt P25098)
[2] = target: ADRBK2 (human) (UniProt P35626)
[3] = target: AKT3 (human) (UniProt Q9Y243)
[4] = target: BLK (human) (UniProt P51451)
[5] = target: CAMK1 (human) (UniProt Q14012)
[6] = target: CAMK1G (human) (UniProt Q96NX5)
[7] = target: CDK6 CCND1 (human) (UniProt Q00534+P24385)
[8] = target: CDK7 CCNH MNAT1 (human) (UniProt P50613+P51948+P51946)
[9] = target: CDK9 CCNK (human) (UniProt O75909+P50750)
[10] = target: CHUK (human) (UniProt O15111)
[11] = target: CSF1R (human) (UniProt P07333)
[12] = target: DAPK3 (human) (UniProt O43293)
[13] = target: DSTYK (human) (UniProt Q6XUX3)
[14] = target: DYRK1A (human) (UniProt Q13627)
[15] = target: DYRK2 (human) (UniProt Q92630)
[16] = target: DYRK4 (human) (UniProt Q9NR20)
[17] = target: EPHA2 (human) (UniProt P29317)
[18] = target: ERBB2 (human) (UniProt P04626)
[19] = target: FER (human) (UniProt P16591)
[20] = target: FGFR1 (human) (UniProt P11362)
[21] = target: FGR (human) (UniProt P09769)
[22] = target: IRAK1 (human) (UniProt P51617)
[23] = target: IRAK4 (human) (UniProt Q9NWZ3)
[24] = target: JAK1 JH1 catalytic (human) (UniProt P23458)
[25] = target: MAPK12 (human) (UniProt P53778)
[26] = target: MAPK14 (human) (UniProt Q16539)
[27] = target: MAPK8 (human) (UniProt P45983)
[28] = target: MINK1 (human) (UniProt Q8N4C8)
[29] = target: MST4 (human) (UniProt Q9P289)
[30] = target: MYLK (human) (UniProt Q15746)
[31] = target: NEK3 (human) (UniProt P51956)
[32] = target: NEK7 (human) (UniProt Q8TDX7)
[33] = target: NLK (human) (UniProt Q9UBE8)
[34] = target: PAK7 (human) (UniProt Q9P286)
[35] = target: PIM2 (human) (UniProt Q9P1W9)
[36] = target: PTK2 (human) (UniProt Q05397)
[37] = target: PTK2B (human) (UniProt Q14289)
[38] = target: SRPK1 (human) (UniProt Q96SB4)
[39] = target: SRPK2 (human) (UniProt P78362)
[40] = target: STK24 (human) (UniProt Q9Y6E0)
[41] = target: STK33 (human) (UniProt Q9BYT3)
[42] = target: TAOK3 (human) (UniProt Q9H2K8)
TAOK3 (human), sequence (Q9H2K8 whole entry, looked up): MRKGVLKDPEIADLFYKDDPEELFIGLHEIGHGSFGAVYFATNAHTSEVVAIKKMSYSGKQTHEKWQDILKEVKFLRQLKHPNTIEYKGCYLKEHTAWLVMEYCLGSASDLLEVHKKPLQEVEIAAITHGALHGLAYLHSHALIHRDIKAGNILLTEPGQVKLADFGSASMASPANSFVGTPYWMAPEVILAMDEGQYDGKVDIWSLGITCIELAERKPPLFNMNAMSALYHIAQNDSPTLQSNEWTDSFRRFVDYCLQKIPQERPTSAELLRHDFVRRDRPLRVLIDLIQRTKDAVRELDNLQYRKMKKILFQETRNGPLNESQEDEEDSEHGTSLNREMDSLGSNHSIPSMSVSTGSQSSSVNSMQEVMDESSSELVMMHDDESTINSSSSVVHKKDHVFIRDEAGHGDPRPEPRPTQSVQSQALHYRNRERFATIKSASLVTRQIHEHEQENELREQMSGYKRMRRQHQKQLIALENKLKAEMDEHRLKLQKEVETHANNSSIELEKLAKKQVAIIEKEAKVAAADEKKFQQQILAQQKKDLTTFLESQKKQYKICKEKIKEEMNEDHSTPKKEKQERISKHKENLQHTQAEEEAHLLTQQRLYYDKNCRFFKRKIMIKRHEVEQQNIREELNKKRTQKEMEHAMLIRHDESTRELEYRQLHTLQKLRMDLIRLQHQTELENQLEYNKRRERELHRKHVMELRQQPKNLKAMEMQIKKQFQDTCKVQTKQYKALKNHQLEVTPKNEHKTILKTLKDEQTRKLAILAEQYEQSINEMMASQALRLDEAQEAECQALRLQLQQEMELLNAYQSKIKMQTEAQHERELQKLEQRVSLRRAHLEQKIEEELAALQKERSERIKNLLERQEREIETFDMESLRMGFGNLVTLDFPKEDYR

MINK1 (human), sequence (Q8N4C8 whole entry, looked up): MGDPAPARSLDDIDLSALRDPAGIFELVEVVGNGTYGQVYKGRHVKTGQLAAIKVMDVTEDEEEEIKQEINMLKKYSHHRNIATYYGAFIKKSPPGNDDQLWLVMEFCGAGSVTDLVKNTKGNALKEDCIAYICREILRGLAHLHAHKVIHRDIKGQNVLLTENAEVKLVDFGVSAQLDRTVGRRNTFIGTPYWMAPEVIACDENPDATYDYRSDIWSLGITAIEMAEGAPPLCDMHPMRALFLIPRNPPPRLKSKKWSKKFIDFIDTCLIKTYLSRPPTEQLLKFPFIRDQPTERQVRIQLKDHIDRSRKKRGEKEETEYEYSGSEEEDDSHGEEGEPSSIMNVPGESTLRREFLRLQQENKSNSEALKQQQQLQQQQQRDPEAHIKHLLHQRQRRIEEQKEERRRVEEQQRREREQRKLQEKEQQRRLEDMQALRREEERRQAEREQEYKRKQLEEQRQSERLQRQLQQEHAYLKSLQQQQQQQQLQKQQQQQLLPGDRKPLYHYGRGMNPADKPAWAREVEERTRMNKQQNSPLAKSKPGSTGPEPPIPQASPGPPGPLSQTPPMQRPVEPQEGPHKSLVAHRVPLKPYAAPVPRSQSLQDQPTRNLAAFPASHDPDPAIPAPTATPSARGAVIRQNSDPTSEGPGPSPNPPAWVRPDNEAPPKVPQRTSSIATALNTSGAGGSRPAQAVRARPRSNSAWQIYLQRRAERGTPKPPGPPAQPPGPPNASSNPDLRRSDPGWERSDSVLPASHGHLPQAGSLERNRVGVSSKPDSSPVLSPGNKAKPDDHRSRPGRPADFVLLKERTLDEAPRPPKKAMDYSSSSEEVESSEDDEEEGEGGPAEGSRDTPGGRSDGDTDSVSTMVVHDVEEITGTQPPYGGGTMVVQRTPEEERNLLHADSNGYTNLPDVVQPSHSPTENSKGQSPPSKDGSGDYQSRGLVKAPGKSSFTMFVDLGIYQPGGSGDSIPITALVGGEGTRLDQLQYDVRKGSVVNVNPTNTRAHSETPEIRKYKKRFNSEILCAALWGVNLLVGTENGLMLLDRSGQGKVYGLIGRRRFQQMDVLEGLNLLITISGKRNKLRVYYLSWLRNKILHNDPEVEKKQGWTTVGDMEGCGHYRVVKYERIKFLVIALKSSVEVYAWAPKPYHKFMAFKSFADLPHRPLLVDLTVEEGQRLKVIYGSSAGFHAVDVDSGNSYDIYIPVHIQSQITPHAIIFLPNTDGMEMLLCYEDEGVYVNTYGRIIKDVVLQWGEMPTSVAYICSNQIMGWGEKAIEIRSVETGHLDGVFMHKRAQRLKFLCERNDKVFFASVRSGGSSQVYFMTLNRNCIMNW
PIM2 (human), sequence (Q9P1W9 whole entry, looked up): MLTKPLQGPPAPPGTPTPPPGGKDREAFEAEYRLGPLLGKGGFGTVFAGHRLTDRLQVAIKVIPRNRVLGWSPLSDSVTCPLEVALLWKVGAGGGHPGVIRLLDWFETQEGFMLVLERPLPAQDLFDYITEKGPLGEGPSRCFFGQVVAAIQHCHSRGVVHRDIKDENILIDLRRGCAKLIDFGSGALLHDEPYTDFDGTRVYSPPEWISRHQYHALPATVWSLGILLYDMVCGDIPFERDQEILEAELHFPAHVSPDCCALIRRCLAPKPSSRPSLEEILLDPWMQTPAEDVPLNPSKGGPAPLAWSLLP
DYRK4 (human), sequence (Q9NR20 whole entry, looked up): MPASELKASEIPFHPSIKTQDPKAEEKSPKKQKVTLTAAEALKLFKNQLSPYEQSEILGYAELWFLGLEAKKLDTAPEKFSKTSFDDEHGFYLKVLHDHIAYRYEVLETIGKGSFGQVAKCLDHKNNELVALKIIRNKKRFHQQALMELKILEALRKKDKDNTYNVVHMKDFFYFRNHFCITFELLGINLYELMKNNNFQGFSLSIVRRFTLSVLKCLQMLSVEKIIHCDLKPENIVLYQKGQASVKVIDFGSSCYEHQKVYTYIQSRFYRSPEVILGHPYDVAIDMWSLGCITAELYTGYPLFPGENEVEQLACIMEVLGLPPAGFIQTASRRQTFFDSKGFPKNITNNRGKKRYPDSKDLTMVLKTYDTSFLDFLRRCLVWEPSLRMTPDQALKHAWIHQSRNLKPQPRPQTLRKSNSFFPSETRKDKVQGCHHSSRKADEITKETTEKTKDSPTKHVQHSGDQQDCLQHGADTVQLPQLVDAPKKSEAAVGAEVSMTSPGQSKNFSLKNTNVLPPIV
ERBB2 (human), sequence (P04626 whole entry, looked up): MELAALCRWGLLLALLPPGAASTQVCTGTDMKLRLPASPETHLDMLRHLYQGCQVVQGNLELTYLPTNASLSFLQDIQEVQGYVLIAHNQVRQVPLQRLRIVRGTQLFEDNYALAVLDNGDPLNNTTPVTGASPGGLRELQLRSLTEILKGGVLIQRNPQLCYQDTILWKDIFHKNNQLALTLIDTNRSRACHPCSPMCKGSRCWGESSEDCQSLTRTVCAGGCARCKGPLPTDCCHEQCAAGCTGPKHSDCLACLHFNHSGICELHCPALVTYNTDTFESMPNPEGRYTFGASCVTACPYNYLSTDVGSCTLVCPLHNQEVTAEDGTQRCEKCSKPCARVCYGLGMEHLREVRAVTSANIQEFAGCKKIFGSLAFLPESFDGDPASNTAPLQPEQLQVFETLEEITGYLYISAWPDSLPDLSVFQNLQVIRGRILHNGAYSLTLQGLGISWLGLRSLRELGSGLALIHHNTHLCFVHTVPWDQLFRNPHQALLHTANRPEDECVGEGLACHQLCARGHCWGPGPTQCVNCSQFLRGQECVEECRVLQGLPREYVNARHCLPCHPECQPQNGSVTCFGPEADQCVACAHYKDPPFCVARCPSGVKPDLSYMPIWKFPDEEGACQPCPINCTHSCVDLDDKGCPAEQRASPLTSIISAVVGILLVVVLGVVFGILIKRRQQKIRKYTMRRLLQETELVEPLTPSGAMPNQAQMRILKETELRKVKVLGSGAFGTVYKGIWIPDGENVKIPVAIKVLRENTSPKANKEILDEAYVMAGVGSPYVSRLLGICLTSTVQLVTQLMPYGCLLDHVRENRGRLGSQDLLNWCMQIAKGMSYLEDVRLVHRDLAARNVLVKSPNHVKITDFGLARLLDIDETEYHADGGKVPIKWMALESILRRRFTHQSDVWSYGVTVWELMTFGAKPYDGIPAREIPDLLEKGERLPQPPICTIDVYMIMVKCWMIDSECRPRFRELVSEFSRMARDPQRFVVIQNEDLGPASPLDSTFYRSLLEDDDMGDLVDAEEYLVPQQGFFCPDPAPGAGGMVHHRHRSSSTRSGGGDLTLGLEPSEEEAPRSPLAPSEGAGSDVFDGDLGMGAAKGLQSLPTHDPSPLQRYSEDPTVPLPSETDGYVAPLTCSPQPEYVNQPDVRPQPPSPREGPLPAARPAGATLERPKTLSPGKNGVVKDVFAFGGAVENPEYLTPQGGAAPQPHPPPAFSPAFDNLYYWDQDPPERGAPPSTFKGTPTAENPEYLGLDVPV
BLK (human), sequence (P51451 whole entry, looked up): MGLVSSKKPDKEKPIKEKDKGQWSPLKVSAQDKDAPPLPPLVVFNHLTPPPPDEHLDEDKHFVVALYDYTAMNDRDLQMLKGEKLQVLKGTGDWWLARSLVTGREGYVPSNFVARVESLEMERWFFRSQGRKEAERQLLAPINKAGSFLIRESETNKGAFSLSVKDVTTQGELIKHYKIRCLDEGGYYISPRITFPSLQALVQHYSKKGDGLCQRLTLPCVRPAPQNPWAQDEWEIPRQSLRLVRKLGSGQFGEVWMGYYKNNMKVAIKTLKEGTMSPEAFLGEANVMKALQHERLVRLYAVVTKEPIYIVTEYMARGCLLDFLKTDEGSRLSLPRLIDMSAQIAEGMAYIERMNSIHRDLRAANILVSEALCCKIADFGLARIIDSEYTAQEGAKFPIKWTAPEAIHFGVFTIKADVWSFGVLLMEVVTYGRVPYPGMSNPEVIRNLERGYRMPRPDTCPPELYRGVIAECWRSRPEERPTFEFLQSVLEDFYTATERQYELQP

residual activity [1]: 97.8%
residual activity [2]: 92.2%
residual activity [3]: 98.2%
residual activity [4]: 1.52%
residual activity [5]: 100%
residual activity [6]: 95.8%
residual activity [7]: 98.2%
residual activity [8]: 96.8%
residual activity [9]: 104%
residual activity [10]: 99.7%
residual activity [11]: 61.3%
residual activity [12]: 114%
residual activity [13]: 100%
residual activity [14]: 99.1%
residual activity [15]: 96.5%
residual activity [16]: 91.6%
residual activity [17]: 100%
residual activity [18]: 101%
residual activity [19]: 88.1%
residual activity [20]: 77.4%
residual activity [21]: 2.93%
residual activity [22]: 110%
residual activity [23]: 98.5%
residual activity [24]: 111%
residual activity [25]: 97.6%
residual activity [26]: 76.3%
residual activity [27]: 117%
residual activity [28]: 105%
residual activity [29]: 95.2%
residual activity [30]: 98.4%
residual activity [31]: 98.4%
residual activity [32]: 94.6%
residual activity [33]: 96.9%
residual activity [34]: 102%
residual activity [35]: 110%
residual activity [36]: 93.9%
residual activity [37]: 96.7%
residual activity [38]: 105%
residual activity [39]: 93.4%
residual activity [40]: 100%
residual activity [41]: 92.3%
residual activity [42]: 92.9%
SMILES: Nc1ncnc2c1c(-c1ccc(Oc3ccccc3)cc1)cn2C1CCCC1

SMILES: N#CC(C#N)=C(N)/C(C#N)=C/c1ccc(O)cc1
residual activity [1]: 104%
residual activity [2]: 96.7%
residual activity [3]: 95.8%
residual activity [4]: 101%
residual activity [5]: 97.2%
residual activity [6]: 104%
residual activity [7]: 91.3%
residual activity [8]: 91.2%
residual activity [9]: 100%
residual activity [10]: 94%
residual activity [11]: 98%
residual activity [12]: 91.1%
residual activity [13]: 92.9%
residual activity [14]: 95.9%
residual activity [15]: 117%
residual activity [16]: 107%
residual activity [17]: 100%
residual activity [18]: 90.1%
residual activity [19]: 91.1%
residual activity [20]: 95.3%
residual activity [21]: 98.7%
residual activity [22]: 123%
residual activity [23]: 92.6%
residual activity [24]: 99.4%
residual activity [25]: 92.6%
residual activity [26]: 104%
residual activity [27]: 100%
residual activity [28]: 97.7%
residual activity [29]: 101%
residual activity [30]: 101%
residual activity [31]: 98%
residual activity [32]: 98.9%
residual activity [33]: 96.7%
residual activity [34]: 94.5%
residual activity [35]: 88.2%
residual activity [36]: 98.5%
residual activity [37]: 97.4%
residual activity [38]: 100%
residual activity [39]: 88.8%
residual activity [40]: 103%
residual activity [41]: 93.2%
residual activity [42]: 102%

SMILES: CO[C@H]1CC2CC[C@@H](C)[C@@](O)(O2)C(=O)C(=O)N2CCCC[C@H]2C(=O)OC([C@H](C)C[C@@H]2CC[C@@H](O)[C@H](OC)C2)CC(=O)[C@H](C)/C=C(\C)[C@@H](O)[C@@H](OC)C(=O)[C@H](C)C[C@H](C)/C=C/C=C/C=C/1C (stereo partly drawn)
residual activity [1]: 102%
residual activity [2]: 98%
residual activity [3]: 97.8%
residual activity [4]: 94.8%
residual activity [5]: 111%
residual activity [6]: 93%
residual activity [7]: 99.8%
residual activity [8]: 98.2%
residual activity [9]: 106%
residual activity [10]: 110%
residual activity [11]: 101%
residual activity [12]: 104%
residual activity [13]: 107%
residual activity [14]: 94.3%
residual activity [15]: 100%
residual activity [16]: 99.8%
residual activity [17]: 107%
residual activity [18]: 97.3%
residual activity [19]: 92%
residual activity [20]: 89.4%
residual activity [21]: 94.5%
residual activity [22]: 118%
residual activity [23]: 123%
residual activity [24]: 103%
residual activity [25]: 107%
residual activity [26]: 99.1%
residual activity [27]: 100%
residual activity [28]: 100%
residual activity [29]: 113%
residual activity [30]: 102%
residual activity [31]: 99%
residual activity [32]: 104%
residual activity [33]: 97.3%
residual activity [34]: 106%
residual activity [35]: 102%
residual activity [36]: 103%
residual activity [37]: 94.2%
residual activity [38]: 108%
residual activity [39]: 104%
residual activity [40]: 93.5%
residual activity [41]: 105%
residual activity [42]: 106%

SMILES: O=c1cc(N2CCOCC2)oc2c1ccc1ccccc12
residual activity [1]: 98.9%
residual activity [2]: 102%
residual activity [3]: 98.3%
residual activity [4]: 104%
residual activity [5]: 111%
residual activity [6]: 102%
residual activity [7]: 102%
residual activity [8]: 98.2%
residual activity [9]: 99.9%
residual activity [10]: 93.4%
residual activity [11]: 103%
residual activity [12]: 94.6%
residual activity [13]: 110%
residual activity [14]: 79%
residual activity [15]: 88.9%
residual activity [16]: 91.9%
residual activity [17]: 110%
residual activity [18]: 105%
residual activity [19]: 91.2%
residual activity [20]: 92.1%
residual activity [21]: 94.6%
residual activity [22]: 112%
residual activity [23]: 122%
residual activity [24]: 104%
residual activity [25]: 97.4%
residual activity [26]: 96.7%
residual activity [27]: 97.2%
residual activity [28]: 96%
residual activity [29]: 93.2%
residual activity [30]: 92.3%
residual activity [31]: 111%
residual activity [32]: 96.6%
residual activity [33]: 103%
residual activity [34]: 108%
residual activity [35]: 78.8%
residual activity [36]: 108%
residual activity [37]: 94.3%
residual activity [38]: 90.9%
residual activity [39]: 100%
residual activity [40]: 103%
residual activity [41]: 97.5%
residual activity [42]: 98.7%

— the kinase profiling compilation of Christmann-Franck et al. (2016)
